Data taken from patent US20100160207A1, “Feedback Prodrug” (University of Georgia Research Foundation, Inc., priority 2006, published 2010).

Legend:
[1] = target: T1, human lysosomal mannosidase (HLM) (Homo sapiens, UniProt O00754); assay: Enzymatic cleavage of prodrugs by human lysosomal mannosidase monitored by 1H NMR; assay type: biochemical; settings: HLM 20 mU, 80 nmol compound, sodium acetate buffer pH 5.6, 37° C.
T1 sequence (O00754 50-1011): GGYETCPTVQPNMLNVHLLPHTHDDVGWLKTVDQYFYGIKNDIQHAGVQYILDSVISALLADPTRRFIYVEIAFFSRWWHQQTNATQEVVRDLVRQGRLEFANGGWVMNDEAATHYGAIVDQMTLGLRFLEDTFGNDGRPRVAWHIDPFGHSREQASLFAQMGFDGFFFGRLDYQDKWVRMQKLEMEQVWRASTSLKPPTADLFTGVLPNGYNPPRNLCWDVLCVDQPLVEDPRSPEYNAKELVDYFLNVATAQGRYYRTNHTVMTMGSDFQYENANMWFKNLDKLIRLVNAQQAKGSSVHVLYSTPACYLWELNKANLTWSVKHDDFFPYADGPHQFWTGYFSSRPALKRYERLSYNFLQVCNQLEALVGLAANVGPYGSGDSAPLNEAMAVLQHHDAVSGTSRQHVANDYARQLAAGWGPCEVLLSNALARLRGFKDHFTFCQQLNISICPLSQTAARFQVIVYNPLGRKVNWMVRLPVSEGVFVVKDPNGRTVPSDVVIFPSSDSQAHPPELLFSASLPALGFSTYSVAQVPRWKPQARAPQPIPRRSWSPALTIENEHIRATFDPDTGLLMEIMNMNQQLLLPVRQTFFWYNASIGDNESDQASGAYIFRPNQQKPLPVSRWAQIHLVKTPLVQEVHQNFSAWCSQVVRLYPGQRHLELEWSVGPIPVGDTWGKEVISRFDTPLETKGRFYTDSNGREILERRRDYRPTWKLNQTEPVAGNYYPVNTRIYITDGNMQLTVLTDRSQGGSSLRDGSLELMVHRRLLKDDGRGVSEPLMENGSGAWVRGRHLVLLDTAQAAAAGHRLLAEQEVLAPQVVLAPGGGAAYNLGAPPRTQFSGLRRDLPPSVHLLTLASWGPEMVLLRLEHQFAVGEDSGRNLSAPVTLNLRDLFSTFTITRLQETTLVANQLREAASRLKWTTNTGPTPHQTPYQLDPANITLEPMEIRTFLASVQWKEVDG
Method: HLM ([…]) was added to a solution of 2 (a) or 1 (b) ([…]) in a deuterated sodium acetate buffer (100 mM, pH, 5.6, 0.2 mL) and the enzymatic cleavage was monitored by ^1H NMR (600 MHz).
The enzymatic cleavage of 1 and 2 by human lysosomal mannosidase (HLM) was monitored by ^1H NMR (600 MHz) (Wilson et al., Org. Lett. 1999, 1, 443) Thus, HLM (20 mU) was added to a solution of 1 or 2 (80 nmol) dissolved in a deuterated sodium acetate buffer (100 mM, pH 5.6, 0.2 mL). The progress of the reaction was monitored by the integration of key signals of the starting material, the intermediate and final product. […] In this case, the released mannostatin A (5) inhibits HLM terminating further hydrolysis of 1. Mannostatin A is a potent inhibitor of retaining α-mannosidases (Ki=90 nM, HLM) (Li et al., Chem. Bio. Chem. 2004, 5, 1220) and thus the release of low concentrations of the active compound is sufficient to abolish enzyme activity.
Kinetic measurements. A solution of compound 1 or 2 (0.08 μmol) and human lysosomal mannosidase (HLM, 0.02 Unit) in deuterated sodium acetate buffer (0.1 M; pH 5.6; 0.2 ml) was incubated at 37° C., and ^1H NMR spectra (600 MHz) were recorded at different time intervals. Relevant signals were integrated to determine the rate of enzymatic hydrolysis, and the appearance of the intermediate and the final product.

[2] = system: α-glucosidase; assay: Negative enzyme control experiment, α-glucosidase; assay type: biochemical; settings: 0.1 Unit, MES buffer pH 6.8, 37° C., 20 h
Method: (§1) Compounds 1 and 2 were subjected to an α-glucosidase, α-fucosidase and α-galactosidase.
(§2) Negative enzyme control experiments. A solution of compound 1 or 2 (0.004 mmol) and α-glucosidase, α-galactosidase or α-L-fucosidase (0.1 Unit) in MES buffer (0.05 M; pH 6.8 for α-glucosidase, pH 6.5 for α-galactosidase or pH 5.5 for α-L-fucosidase; 1 ml) was incubated at 37° C. for 20 h, after which the reaction mixture was freezing-dried, and the solid residue was analyzed by ^1H NMR spectrometry and mass spectrometry.

[3] = system: α-galactosidase; assay: Negative enzyme control experiment, α-galactosidase; assay type: biochemical; settings: 0.1 Unit, MES buffer pH 6.5, 37° C., 20 h
Method: as §1, §2

[4] = system: α-L-fucosidase; assay: Negative enzyme control experiment, α-L-fucosidase; assay type: biochemical; settings: 0.1 Unit, MES buffer pH 5.5, 37° C., 20 h
Method: as §1, §2

[5] = Treatment with cell lysate in the presence of swainsonine and kifunensine; assay type: in vitro ADME
[6] = Stability measurements in deuterated sodium acetate buffer by 1H NMR; assay type: physicochemical; settings: 0.4 mM, sodium acetate buffer pH 4.0, 37° C., 6 days
Method: Stability measurements. A solution of compound 1 or 2 (0.4 mM) in deuterated sodium acetate buffer (100 mM; pH 4.0; 0.2 ml) in a NMR tube was incubated at 37° C. for 6 days. ^1H NMR spectra were recorded every day.

[7] = target: T2, drosophila Golgi α-mannosidase II (dGMII) (Drosophila melanogaster, UniProt Q24451); assay: Affinity of N-benzyl mannostatin for Golgi α-mannosidase II; assay type: binding
T2 sequence (Q24451 1-1108): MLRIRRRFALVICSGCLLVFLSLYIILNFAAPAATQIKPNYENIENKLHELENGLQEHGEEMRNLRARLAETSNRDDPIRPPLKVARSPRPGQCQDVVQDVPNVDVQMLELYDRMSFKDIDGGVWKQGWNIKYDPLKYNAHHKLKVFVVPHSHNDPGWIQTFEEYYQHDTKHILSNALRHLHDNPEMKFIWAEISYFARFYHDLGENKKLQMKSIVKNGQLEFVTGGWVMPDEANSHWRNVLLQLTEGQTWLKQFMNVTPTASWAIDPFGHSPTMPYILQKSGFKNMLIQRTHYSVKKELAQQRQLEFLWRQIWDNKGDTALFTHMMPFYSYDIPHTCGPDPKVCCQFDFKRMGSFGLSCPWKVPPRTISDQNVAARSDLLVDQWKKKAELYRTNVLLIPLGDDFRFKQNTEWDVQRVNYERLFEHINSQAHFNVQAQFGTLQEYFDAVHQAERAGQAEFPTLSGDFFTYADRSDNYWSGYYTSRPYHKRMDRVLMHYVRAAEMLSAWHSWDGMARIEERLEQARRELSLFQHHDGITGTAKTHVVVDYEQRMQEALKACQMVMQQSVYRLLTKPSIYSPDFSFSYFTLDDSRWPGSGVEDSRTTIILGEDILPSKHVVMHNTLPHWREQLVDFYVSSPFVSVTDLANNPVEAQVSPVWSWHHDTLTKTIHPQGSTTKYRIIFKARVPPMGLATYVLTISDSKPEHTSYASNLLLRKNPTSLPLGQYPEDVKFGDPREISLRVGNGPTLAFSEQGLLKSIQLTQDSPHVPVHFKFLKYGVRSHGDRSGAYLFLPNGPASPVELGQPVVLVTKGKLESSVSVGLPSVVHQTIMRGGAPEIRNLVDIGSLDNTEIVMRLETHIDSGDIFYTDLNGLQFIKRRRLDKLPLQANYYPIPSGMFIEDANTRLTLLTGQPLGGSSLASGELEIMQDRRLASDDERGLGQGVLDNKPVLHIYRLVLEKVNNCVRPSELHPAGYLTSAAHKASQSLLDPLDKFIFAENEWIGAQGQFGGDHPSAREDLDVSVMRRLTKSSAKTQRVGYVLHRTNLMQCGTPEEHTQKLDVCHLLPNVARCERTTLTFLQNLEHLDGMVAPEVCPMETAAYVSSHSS
Text: The finding was ultimately explained by careful examination of the crystal structure of dGMII with the synthetic inhibitor; see Kawatkar et al., J. Am. Chem. Soc., 128, 8310-8319 (2006).

enzymatic hydrolysis of the prodrug by HLM [1] | decomposition by α-glucosidase [2] | decomposition by α-galactosidase [3] | decomposition by α-L-fucosidase [4] | decomposition in cell lysate [5] | decomposition in buffer [6] | affinity compared with mannostatin A [7] | Compound
virtually no hydrolysis was observed | No decomposition of product was observed | No decomposition of product was observed | No decomposition of product was observed | did not lead to decomposition | No decomposition of product was observed |  | CSC1C(O)C(O)C(O)C1NC(=O)OCc1ccc(O[C@H]2O[C@H](CO)[C@@H](O)[C@H](O)[C@@H]2O)cc1 (stereo partly drawn) [Compound 1, 1D-(1,2,3,4/5)-4-[4-(α-D-mannopyranosyloxy)-benzyloxycarbonyl]amino-5-(methylsulfanyl)cyclopentane-1,2,3-triol]
 |  |  |  |  |  | slightly reduced affinity | CSC1C(O)C(O)C(O)C1NCc1ccccc1 (stereo not shown) [N-benzyl mannostatin]
